Measured values taken from ChEMBL document CHEMBL1121473, “Conformationally defined aromatic amino acids. Synthesis and stereochemistry of 2-endo- and 2-exo-amino-1,2,3,4-tetrahydro-1,4-ethanonaphthalene-2-carboxylic acids (2-endo- and 2-exo-aminobenzobicycle[2.2.2]octene-2-carboxylic acids)” (J Med Chem, 1980).
Blank lines part the entries; values can stand above or below the compound they belong to.

Columns and labels:
[1] = test system: Enterococcus faecalis; experiment: ability to inhibit the decarboxylation of L-phenyl-alanine using a crude enzyme preparation of phenylalanine decarboxylase (PAD) from Streptococcus faecalis, at 1 mM concentration
[2] = test system: Enterococcus faecalis; experiment: Ability to inhibit the decarboxylation of L-phenyl-alanine using a crude enzyme preparation of phenylalanine decarboxylase (PAD) from Streptococcus faecalis, at 1.76 mM concentration
[3] = test system: Enterococcus faecalis; experiment: ability to inhibit the decarboxylation of L-phenyl-alanine using a crude enzyme preparation of phenylalanine decarboxylase (PAD) from Streptococcus faecalis, at 1.76 mM concentration
[4] = test system: Enterococcus faecalis; experiment: Ability to inhibit the decarboxylation of L-phenyl-alanine using a crude enzyme preparation of phenylalanine decarboxylase (PAD) from Streptococcus faecalis at 1.76 mM concentration

inhibition [1]: 24%
Compound: N[C@@H](Cc1ccc(Cl)cc1)C(=O)O (racemic)

Compound: NC1(C(=O)O)CC2CC[C@@H]1c1ccccc12 (stereo in doubt; 1b)
inhibition [2]: 8%

inhibition [3]: 8%
Compound: C[C@](N)(Cc1ccc(O)c(O)c1)C(=O)O (racemic)

Compound: NC1(C(=O)O)CC2CC[C@@H]1c1ccccc12 (stereo in doubt; 1a)
inhibition [4]: 7%
